{
  "source": "patent US10413535B2",
  "about": "“Pharmaceutical compositions comprising an integrin ALPHA4 antagonist for use in treating ocular inflammatory conditions” (AXEROVISION, INC., priority 2015, dated 2019)",
  "biological_target": "T1, α4β7-MAdCAM (Homo sapiens, UniProt P13612+P26010)",
  "T1 construct": "endogenous in cells; host or cells: RPMI 8866 cells (human B lymphoid cell line)",
  "T1 sequence (P13612 34-1032)": "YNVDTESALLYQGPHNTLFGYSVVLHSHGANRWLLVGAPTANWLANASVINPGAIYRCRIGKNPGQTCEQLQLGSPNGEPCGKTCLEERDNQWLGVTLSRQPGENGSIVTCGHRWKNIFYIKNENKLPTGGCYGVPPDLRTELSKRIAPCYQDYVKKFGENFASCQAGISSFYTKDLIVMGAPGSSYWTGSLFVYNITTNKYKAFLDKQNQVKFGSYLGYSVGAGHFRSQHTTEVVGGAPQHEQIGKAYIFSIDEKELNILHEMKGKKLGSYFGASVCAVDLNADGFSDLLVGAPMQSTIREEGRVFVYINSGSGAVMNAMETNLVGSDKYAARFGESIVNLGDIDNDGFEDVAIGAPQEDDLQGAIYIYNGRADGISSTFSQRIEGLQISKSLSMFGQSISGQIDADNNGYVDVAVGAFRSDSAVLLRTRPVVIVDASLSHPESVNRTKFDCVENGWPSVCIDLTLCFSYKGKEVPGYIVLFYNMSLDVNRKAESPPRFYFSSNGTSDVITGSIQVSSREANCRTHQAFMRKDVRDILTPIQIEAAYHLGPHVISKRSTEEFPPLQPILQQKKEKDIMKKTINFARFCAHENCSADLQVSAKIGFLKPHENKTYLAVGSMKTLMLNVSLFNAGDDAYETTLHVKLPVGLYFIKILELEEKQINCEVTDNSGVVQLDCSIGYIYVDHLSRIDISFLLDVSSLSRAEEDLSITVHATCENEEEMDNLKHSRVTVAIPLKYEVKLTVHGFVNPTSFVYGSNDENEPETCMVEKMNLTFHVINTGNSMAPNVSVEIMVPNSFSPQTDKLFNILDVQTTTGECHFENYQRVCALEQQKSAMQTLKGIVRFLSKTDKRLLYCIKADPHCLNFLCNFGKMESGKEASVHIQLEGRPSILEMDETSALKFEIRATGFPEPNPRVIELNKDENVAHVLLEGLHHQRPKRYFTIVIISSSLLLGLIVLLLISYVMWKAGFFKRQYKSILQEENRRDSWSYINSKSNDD",
  "T1 sequence (P26010 20-798)": "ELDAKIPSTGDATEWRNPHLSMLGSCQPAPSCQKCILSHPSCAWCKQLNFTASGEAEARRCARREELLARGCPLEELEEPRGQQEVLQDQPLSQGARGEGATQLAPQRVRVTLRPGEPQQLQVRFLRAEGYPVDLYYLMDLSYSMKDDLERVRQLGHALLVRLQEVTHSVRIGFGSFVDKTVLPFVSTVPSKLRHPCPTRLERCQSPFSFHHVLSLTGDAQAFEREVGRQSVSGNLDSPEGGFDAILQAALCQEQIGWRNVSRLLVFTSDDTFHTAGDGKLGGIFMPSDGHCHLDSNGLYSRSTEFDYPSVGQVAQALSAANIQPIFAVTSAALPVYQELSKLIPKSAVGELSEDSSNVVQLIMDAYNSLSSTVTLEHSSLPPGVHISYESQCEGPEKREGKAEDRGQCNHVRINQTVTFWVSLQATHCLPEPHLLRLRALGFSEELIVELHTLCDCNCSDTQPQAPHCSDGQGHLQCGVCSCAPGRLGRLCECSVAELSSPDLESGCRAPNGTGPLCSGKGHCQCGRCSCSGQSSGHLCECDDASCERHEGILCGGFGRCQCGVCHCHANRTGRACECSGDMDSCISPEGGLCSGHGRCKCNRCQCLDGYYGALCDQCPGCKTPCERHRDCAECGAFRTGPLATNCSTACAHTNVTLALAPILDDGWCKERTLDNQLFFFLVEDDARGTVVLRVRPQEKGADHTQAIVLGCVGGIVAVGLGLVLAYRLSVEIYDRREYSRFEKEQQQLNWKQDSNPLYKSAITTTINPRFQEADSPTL",
  "test": "MAdCAM cell adhesion assay, RPMI 8866 cells",
  "type": "cell-based",
  "details": "RPMI 8866 cells to MAdCAM; read-out: Inhibition of cell adhesion (IC50)",
  "protocol": "Jurkat J6 cells (human lymphoblast cell line) were grown as a suspension culture in RPMI 1640 supplemented with FCS (10%) and glutamine (2 mM). RPMI8866 cells (human B lymphoid cell line) were grown as a suspension culture in RPMI 1640 supplemented with FCS (10%) and glutamine (2 mM). RBL-2H3 cells (rat basophilic cell line) were cultured in Eagle's MEM plus Earles salts supplemented with 2 mM L-glutamine, 1 mM sodium pyruvate, 1× non-essential amino acids, 1 mM Na pyruvate 10% heat inactivated foetal calf serum.\nPolystyrene 96-well microtitre plates were coated with IgG at a concentration of 0.05 mg/mL in bicarbonate buffer for 2.5 hours at 37° C. The solution was aspirated and the plates washed twice with PBS. The plates were then incubated overnight at 4° C. with MAdCAM at a concentration of 204.0 ng/mL in 3% BSA in PBS. Prior to use the MAdCAM was aspirated and the plates washed twice with PBS. J6 or RPMI cells (as required) were labelled with the fluorescent dye BCECF-AM (10 μM and 6×10^6 cells/mL) for 10 min at 37° C. before the excess was removed by centrifugation at 500 g for 5 min and the cells resuspended at a cell concentration of 1.2×10^7 cells/mL in HBSS. Equal volumes of HBSS containing the compound of formula I (over concentration range 38.1 pM to 10 μM) and cells were added to the MAdCAM coated plates. […] The plates were counted in a Wallac Viktor.",
  "data": [
    {"smiles": "Cc1ccccc1OCC(=O)N[C@@H](CC(C)C)C(=O)N[C@@H](Cc1ccc(OC(=O)N2CCC(C(N)=O)CC2)cc1)C(=O)O", "note": "[GW559090, (2S)-3-[4-({[4-(Aminocarbonyl)-1-piperidinyl]carbonyl}oxy)phenyl]-2-[((2S)-4-methyl-2-{[2-(2-methylphenoxy)acetyl]amino}pentanoyl)amino]propanoic acid]", "values": [
      {"measurement": "IC50", "value": 23, "unit": "nM"}
    ]}
  ]
}
